Laboratory results reported in the CheMixHub viscosity set.
± gives the uncertainty stated by the source.

Experiment: xn = mol fraction of the nth substance listed

CCCCCOC(C)=O + CCCCCC
303.15 K, 101.3 kPa
Conditions | viscosity [mPa·s]
x1 = 0.1004 | 0.303 ± 0.0024
x1 = 0.2054 | 0.3329 ± 0.0026
x1 = 0.298 | 0.3626 ± 0.0028
x1 = 0.403 | 0.4007 ± 0.003
x1 = 0.5009 | 0.443 ± 0.0032
x1 = 0.6017 | 0.4937 ± 0.0035
x1 = 0.6958 | 0.5456 ± 0.0038
x1 = 0.8016 | 0.6101 ± 0.0041
x1 = 0.8978 | 0.6752 ± 0.0045

O=C(O)C(=O)O + C[N+](C)(C)CCO.[Cl-]
viscosity [mPa·s], x2 = 0.5
Conditions | 293.15 K | 293.2 K | 298.15 K | 303.2 K | 308.15 K | 313.2 K | 318.15 K
100 kPa | 15680 ± 1300 | – | 8953 ± 680 | – | 3332 ± 220 | – | 1421 ± 82
101.3 kPa | – | 7595 ± 1700 | – | 4359 ± 690 | – | 2174 ± 340 | –

CCCCCC + CCCCCCC
Conditions | viscosity [mPa·s]
298 K, 101.33 kPa, x2 = 0.1005 | 0.3132 ± 0.0045
298 K, 101.33 kPa, x2 = 0.1957 | 0.3202 ± 0.0046
298 K, 101.33 kPa, x2 = 0.3837 | 0.3365 ± 0.0048
298 K, 101.33 kPa, x2 = 0.508 | 0.3471 ± 0.0049
298 K, 101.33 kPa, x2 = 0.6023 | 0.3554 ± 0.005
298 K, 101.33 kPa, x2 = 0.7154 | 0.3649 ± 0.0051
298 K, 101.33 kPa, x2 = 0.8009 | 0.3727 ± 0.0052
298 K, 101.33 kPa, x2 = 0.8944 | 0.3801 ± 0.0053
298.15 K, 101 kPa, x2 = 0.2069 | 0.3145 ± 0.004
298.15 K, 101 kPa, x2 = 0.2091 | 0.315 ± 0.004
298.15 K, 101 kPa, x2 = 0.2351 | 0.316 ± 0.004
298.15 K, 101 kPa, x2 = 0.2355 | 0.316 ± 0.004
298.15 K, 101 kPa, x2 = 0.2614 | 0.317 ± 0.004
298.15 K, 101 kPa, x2 = 0.2637 | 0.317 ± 0.004
298.15 K, 101 kPa, x2 = 0.2921 | 0.319 ± 0.0041
298.15 K, 101 kPa, x2 = 0.2929 | 0.319 ± 0.0041
298.15 K, 101 kPa, x2 = 0.3129 | 0.32 ± 0.0041
298.15 K, 101 kPa, x2 = 0.3245 | 0.3205 ± 0.0041
298.15 K, 101 kPa, x2 = 0.3582 | 0.323 ± 0.0041
298.15 K, 101 kPa, x2 = 0.3665 | 0.3245 ± 0.0041
298.15 K, 101 kPa, x2 = 0.3904 | 0.325 ± 0.0041
298.15 K, 101 kPa, x2 = 0.3907 | 0.325 ± 0.0041
298.15 K, 101 kPa, x2 = 0.4267 | 0.3275 ± 0.0042
298.15 K, 101 kPa, x2 = 0.4279 | 0.328 ± 0.0042
298.15 K, 101 kPa, x2 = 0.4662 | 0.331 ± 0.0042
298.15 K, 101 kPa, x2 = 0.4687 | 0.331 ± 0.0042
298.15 K, 101 kPa, x2 = 0.5072 | 0.3345 ± 0.0042
298.15 K, 101 kPa, x2 = 0.5084 | 0.3345 ± 0.0042
298.15 K, 101 kPa, x2 = 0.5516 | 0.339 ± 0.0043
298.15 K, 101 kPa, x2 = 0.5526 | 0.338 ± 0.0043
298.15 K, 101 kPa, x2 = 0.5986 | 0.344 ± 0.0043
298.15 K, 101 kPa, x2 = 0.5994 | 0.344 ± 0.0043
298.15 K, 101 kPa, x2 = 0.6496 | 0.35 ± 0.0044
298.15 K, 101 kPa, x2 = 0.6507 | 0.35 ± 0.0044
298.15 K, 101 kPa, x2 = 0.6856 | 0.3545 ± 0.0045
298.15 K, 101 kPa, x2 = 0.6881 | 0.355 ± 0.0045
298.15 K, 101 kPa, x2 = 0.7266 | 0.3595 ± 0.0045
298.15 K, 101 kPa, x2 = 0.728 | 0.36 ± 0.0045
298.15 K, 101.33 kPa, x1 = 0.1059 | 0.3792 ± 0.0058
298.15 K, 101.33 kPa, x1 = 0.2067 | 0.3658 ± 0.0056
298.15 K, 101.33 kPa, x1 = 0.302 | 0.358 ± 0.0056
298.15 K, 101.33 kPa, x1 = 0.406 | 0.3485 ± 0.0055
298.15 K, 101.33 kPa, x1 = 0.5051 | 0.3409 ± 0.0054
298.15 K, 101.33 kPa, x1 = 0.6064 | 0.3305 ± 0.0053
298.15 K, 101.33 kPa, x1 = 0.704 | 0.3227 ± 0.0052
298.15 K, 101.33 kPa, x1 = 0.8008 | 0.3123 ± 0.0051
298.15 K, 101.33 kPa, x1 = 0.8993 | 0.3075 ± 0.005

Cc1nc(C)n(C)c1C + O
viscosity [mPa·s], 100 kPa
Conditions | x1 = 0.0159 | x1 = 0.035 | x1 = 0.0585 | x1 = 0.0882 | x1 = 0.127
298.15 K | 1.258 ± 0.051 | 1.817 ± 0.074 | 2.65 ± 0.11 | 3.86 ± 0.16 | 5.77 ± 0.25
303.15 K | 1.125 ± 0.046 | 1.61 ± 0.066 | 2.31 ± 0.09 | 3.35 ± 0.14 | 4.91 ± 0.22
313.15 K | 0.899 ± 0.037 | 1.244 ± 0.051 | 1.733 ± 0.071 | 2.53 ± 0.1 | 3.36 ± 0.15
323.15 K | 0.756 ± 0.031 | 0.998 ± 0.041 | 1.344 ± 0.055 | 1.806 ± 0.073 | 2.44 ± 0.11

CCCCCOC(C)=O + C=Cc1ccccc1
Conditions | viscosity [mPa·s]
298.15 K, 101 kPa, x2 = 0.103 | 0.802 ± 0.0098

CC(C)CO + OCC(O)CO
viscosity [mPa·s], 101.33 kPa
Conditions | x2 = 0.1006 | x2 = 0.2008 | x2 = 0.2991 | x2 = 0.3991 | x2 = 0.5003 | x2 = 0.6005 | x2 = 0.7001 | x2 = 0.7997 | x2 = 0.8994
298.15 K | 4.625 ± 0.47 | 7.894 ± 0.81 | 14.39 ± 1.5 | 26.58 ± 2.8 | 56.03 ± 5.9 | 118.3 ± 12 | 233.2 ± 25 | 395.9 ± 42 | 595.4 ± 64
308.15 K | 3.192 ± 0.33 | 5.58 ± 0.57 | 9.274 ± 0.95 | 15.86 ± 1.6 | 30.35 ± 3.2 | 59.4 ± 6.2 | 110.6 ± 11 | 179.4 ± 19 | 269.1 ± 28
318.15 K | 2.33 ± 0.24 | 3.788 ± 0.39 | 6.116 ± 0.62 | 9.794 ± 1 | 17.19 ± 1.8 | 32.13 ± 3.3 | 55.06 ± 5.6 | 86.54 ± 8.8 | 120.9 ± 12

Cc1ccccc1O + c1ccccc1
viscosity [mPa·s]
Conditions | 298.15 K | 308.15 K | 318.15 K | 323.15 K
101 kPa, x1 = 0.1176 | – | 0.641 ± 0.0055 | – | –
101 kPa, x1 = 0.2203 | – | 0.7752 ± 0.0065 | – | –
101 kPa, x1 = 0.3357 | – | 0.9753 ± 0.008 | – | –
101 kPa, x1 = 0.4352 | – | 1.164 ± 0.0094 | – | –
101 kPa, x1 = 0.5693 | – | 1.535 ± 0.012 | – | –
101 kPa, x1 = 0.6728 | – | 2.109 ± 0.016 | – | –
101 kPa, x1 = 0.7757 | – | 2.775 ± 0.021 | – | –
101 kPa, x1 = 0.896 | – | 3.774 ± 0.028 | – | –
101.33 kPa, x1 = 0.1 | 0.704 ± 0.019 | 0.609 ± 0.016 | 0.531 ± 0.014 | 0.497 ± 0.013
101.33 kPa, x1 = 0.2 | 0.849 ± 0.023 | 0.727 ± 0.02 | 0.623 ± 0.017 | 0.578 ± 0.016
101.33 kPa, x1 = 0.4 | 1.319 ± 0.036 | 1.073 ± 0.029 | 0.894 ± 0.024 | 0.815 ± 0.022
101.33 kPa, x1 = 0.5 | 1.661 ± 0.045 | 1.334 ± 0.036 | 1.084 ± 0.03 | 0.981 ± 0.027
101.33 kPa, x1 = 0.6 | 2.148 ± 0.059 | 1.668 ± 0.046 | 1.331 ± 0.036 | 1.186 ± 0.032
101.33 kPa, x1 = 0.8 | 3.874 ± 0.11 | 2.766 ± 0.077 | 2.067 ± 0.057 | 1.807 ± 0.049

CC(C)(C)c1ccccc1 + CCCCCCCCCCCC
viscosity [mPa·s], 102 kPa
Conditions | x1 = 0.1017 | x1 = 0.2009 | x1 = 0.2995 | x1 = 0.4002 | x1 = 0.5001 | x1 = 0.5979 | x1 = 0.699 | x1 = 0.8 | x1 = 0.9006
293.15 K | 1.43 ± 0.02 | 1.37 ± 0.02 | 1.32 ± 0.02 | 1.27 ± 0.02 | 1.22 ± 0.02 | 1.18 ± 0.02 | 1.16 ± 0.02 | 1.14 ± 0.02 | 1.13 ± 0.02
303.15 K | 1.2 ± 0.02 | 1.16 ± 0.02 | 1.12 ± 0.02 | 1.08 ± 0.02 | 1.05 ± 0.02 | 1.02 ± 0.02 | 0.998 ± 0.021 | 0.982 ± 0.021 | 0.975 ± 0.021
313.15 K | 1.03 ± 0.02 | 0.998 ± 0.021 | 0.971 ± 0.021 | 0.942 ± 0.021 | 0.916 ± 0.021 | 0.895 ± 0.021 | 0.874 ± 0.021 | 0.859 ± 0.021 | 0.854 ± 0.021
323.15 K | 0.9 ± 0.021 | 0.872 ± 0.021 | 0.846 ± 0.021 | 0.825 ± 0.021 | 0.804 ± 0.021 | 0.787 ± 0.021 | 0.77 ± 0.021 | 0.758 ± 0.021 | 0.752 ± 0.021

Cc1ccccc1O + CCCC(=O)O
viscosity [mPa·s], 101 kPa
Conditions | x2 = 0.1104 | x2 = 0.2183 | x2 = 0.3237 | x2 = 0.4268 | x2 = 0.5276 | x2 = 0.6262 | x2 = 0.7227 | x2 = 0.8171 | x2 = 0.9095
298.15 K | 6.565 ± 0.53 | 5.731 ± 0.48 | 4.976 ± 0.43 | 4.317 ± 0.38 | 3.725 ± 0.33 | 3.167 ± 0.28 | 2.698 ± 0.24 | 2.265 ± 0.21 | 1.862 ± 0.17
308.15 K | 4.973 ± 0.43 | 4.431 ± 0.39 | 3.973 ± 0.35 | 3.534 ± 0.31 | 3.113 ± 0.28 | 2.687 ± 0.24 | 2.294 ± 0.21 | 1.936 ± 0.18 | 1.575 ± 0.15
318.15 K | 3.375 ± 0.3 | 3.191 ± 0.28 | 2.968 ± 0.27 | 2.723 ± 0.25 | 2.463 ± 0.22 | 2.194 ± 0.2 | 1.914 ± 0.18 | 1.62 ± 0.15 | 1.307 ± 0.13

CC1CCCO1 (configuration not stated) + Brc1ccccc1
viscosity [mPa·s], 101 kPa
Conditions | x1 = 0.0991 | x1 = 0.1998 | x1 = 0.301 | x1 = 0.4046 | x1 = 0.5029
298.15 K | 1.007 ± 0.0082 | 0.9516 ± 0.0078 | 0.8942 ± 0.0074 | 0.8346 ± 0.0069 | 0.7773 ± 0.0065
313.15 K | 0.835 ± 0.0069 | 0.7895 ± 0.0066 | 0.7425 ± 0.0063 | 0.6943 ± 0.0059 | 0.6477 ± 0.0056

ClCC(Cl)Cl + N#CCc1ccccc1
Conditions | viscosity [mPa·s]
303.15 K, 101 kPa, x2 = 0.3463 | 1.365 ± 0.019

CCCC=O + CCO
298.1 K, 101 kPa
Conditions | viscosity [mPa·s]
x1 = 0.1009 | 1.261 ± 0.027
x1 = 0.1952 | 1.413 ± 0.03
x1 = 0.3034 | 1.484 ± 0.031
x1 = 0.3333 | 1.463 ± 0.031
x1 = 0.3989 | 1.366 ± 0.029
x1 = 0.5109 | 1.103 ± 0.024
x1 = 0.5976 | 0.896 ± 0.021
x1 = 0.7003 | 0.7 ± 0.018
x1 = 0.7924 | 0.564 ± 0.016
x1 = 0.8988 | 0.468 ± 0.015
